Assay results from patent US11447486B2, “2-amino-benzimidazole derivatives and their use as 5-lipoxygenase and/or prostaglandin E synthase inhibitors” (INSTITUT PASTEUR KOREA, priority 2014, dated 2022).
Like-named read-outs stand apart in the source and are kept apart here.

Assays:
human 5-LOX = target: T1, human 5-LOX (Homo sapiens, UniProt P09917); test: 5-LOX enzyme activity, fluorescence method (5-HPETE, H2DCFDA); assay type: biochemical
T1 construct: purchased Cayman 60402; host or cells: insect cells (lysate)
T1 sequence (P09917 1-674): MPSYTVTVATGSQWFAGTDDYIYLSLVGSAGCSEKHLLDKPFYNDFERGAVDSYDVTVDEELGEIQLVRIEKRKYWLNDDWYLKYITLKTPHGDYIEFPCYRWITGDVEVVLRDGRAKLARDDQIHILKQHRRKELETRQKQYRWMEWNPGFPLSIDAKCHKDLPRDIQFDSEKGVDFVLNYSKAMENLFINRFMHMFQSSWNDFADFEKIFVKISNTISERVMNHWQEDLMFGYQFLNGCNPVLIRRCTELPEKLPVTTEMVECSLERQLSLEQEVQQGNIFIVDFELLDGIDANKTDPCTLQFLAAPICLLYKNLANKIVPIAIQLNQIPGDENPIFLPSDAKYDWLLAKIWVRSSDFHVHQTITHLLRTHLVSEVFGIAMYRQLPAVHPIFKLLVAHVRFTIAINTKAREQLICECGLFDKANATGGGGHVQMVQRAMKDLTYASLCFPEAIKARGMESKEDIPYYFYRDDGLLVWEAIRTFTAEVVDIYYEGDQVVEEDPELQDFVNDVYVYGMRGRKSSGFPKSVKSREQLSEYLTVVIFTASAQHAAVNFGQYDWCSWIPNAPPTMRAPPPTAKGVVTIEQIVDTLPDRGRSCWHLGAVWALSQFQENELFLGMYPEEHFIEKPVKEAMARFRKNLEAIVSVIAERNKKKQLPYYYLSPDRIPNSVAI
Outline: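 Fluorescence-based read-out, run entirely at room temperature. Enzyme mixture was exposed to a dose range of compound from 0.5 nM to 10 uM for 5 min before ATP and arachidonic acid were added to final levels of 100 uM and 3 uM.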

[1] = system: Rat basophilic leukemia (RBL) cells; test: LTB4 secretion assay in RBL (rat basophilic leukemia cells); assay type: cell-based; conditions: Rattus norvegicus
Outline: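 LTB4 released into supernatant was measured by EIA after 10 min at 37 °C with arachidonic acid (2.5 uM final) and calcium ionophore A23187 (5 uM final). Before stimulation, cells plated 2×10^4/well overnight received compound doses (5 nM to 100 uM) for 15 min in 0.5% FBS medium.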

Rat whole blood (RWB) = test: LTB4 secretion assay in RWB (rat whole blood); assay type: cell-based; conditions: Rattus norvegicus
Outline: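 LTB4 release was measured by EIA in supernatants of pooled, sodium heparin rat blood (male Sprague Dawley, 6-9 weeks) diluted 1:1 with RPMI. Compounds (2.5 nM to 50 uM) were added 15 min before A23187 (10 uM final), with 10 min stimulation at 37 °C before ice-cold PBS quench.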

HeLa S3 cells = test: PGE2 inhibition assay (HTRF) in TNF-α stimulated HeLa S3 cells; assay type: cell-based; conditions: Homo sapiens; PGE2, 10 uM compound, HeLa S3 stimulated with TNF-α
Experimental: Human epitheloid cervix carcinoma HeLa S3 cells (2×10^6cells/ml) were seeded with modified F-12K buffer medium pH 7.4 in tissue culture plate and incubated for overnight at 37° C. and 5% CO2. Then medium was changed into new medium contained 10 uM testing compounds or 0.1% DMSO and incubated overnight. After incubation, cells were stimulated with 30 nM TNF-α (Tumor necrosis factor-α) for 16 h. For determination of PGE2, the supernatant was measured by PGE2 HTRF (Homogeneous Time Resolved Fluorescence) assay kit Inhibition of PGE2 by compounds is calculated as a percentage of activity in the presence of drug versus the activity in the stimulator TNF-α.

IC50 (human 5-LOX; read-out: 5-LO (IC50)) [µM]	EC50 ([1]; RBL) [µM]	EC50 (Rat whole blood (RWB)) [µM]	melting point	Compound	inhibition at 10 µM (HeLa S3 cells) [%]	IC50 (human 5-LOX; 5-LO (IC50, uM)) [µM]	EC50 [1] [µM]
< 1	< 10	< 10	> 54.3 °C	c1ccc(Oc2ccc(CNc3nc4cc(NC5CCOC5)ccc4[nH]3)cc2)cc1 (stereo not drawn) [Compound 119]			
< 1	< 10		102.3 to 107.3 °C	Cn1c(NCc2ccc(Oc3ccc4c(Cl)cccc4n3)cc2)nc2ccc(NC3COC3)cc21 [Compound 425]			
< 1	> 20		> 220 °C	Nc1ccc2[nH]c(NCc3ccc(N4CCC(c5ccc(Cl)cc5)CC4)cc3)nc2c1 [Compound 115]			
< 1	< 10	< 10		Nc1ccc2[nH]c(NCc3ccc(Oc4ccc(Cl)cc4)cc3)nc2c1 [Compound 86]	> 70		
< 1	< 10	< 10		Nc1ccc2[nH]c(NCc3cccc(Oc4ccccc4)c3)nc2c1 [Compound 103]	> 70		
< 1	10 to 20		193.3 to 205 °C	Nc1ccc2[nH]c(N3CCC(Oc4ccc(F)cc4)CC3)nc2c1 [Compound 34]			
> 10			> 220 °C	Cc1cnn(-c2nc3cc(N4CCN(c5ccc(F)cc5)CC4)ccc3[nH]2)c1 [Compound 25]			
< 1	> 20		> 200 °C	Nc1ccc2[nH]c(NCc3ccc(S(=O)(=O)Nc4ccc(Cl)cc4)cc3)nc2c1 [Compound 151]			
< 1	< 10	< 10		Nc1ccc2nc(N)n(Cc3ccc(Oc4ccc(Cl)cn4)cc3)c2c1 [Compound 195]	< 40		
< 1	< 10	< 10	191.4 to 193.5 °C	Nc1cc2nc(NCc3ccc(Oc4ccc(Cl)cc4)cc3)[nH]c2cc1Cl [Compound 147]			
< 1	< 10	> 20	> 113.2 °C	CC(C)(Nc1ccc2[nH]c(NCc3ccc(Oc4ccc(Cl)cc4)cc3)nc2c1)C(N)=O [Compound 118]			
1 to 10	10 to 20		178.2 to 179.6 °C	Nc1ccc2c(c1)nc(N)n2CCc1ccc(F)cc1 [Compound 42]			
< 1	10 to 20		96.6 to 100.9 °C	Cn1c(NCc2ccc(OCc3ccc(Cl)cn3)cc2)nc2ccc(N)cc21 [Compound 314]			
1 to 10	< 10	> 20	60.8 to 61.6 °C	CN(C)c1nc2cc(N)ccc2n1CCOc1ccc(OC(F)(F)F)cc1 [Compound 43]			
< 1	< 10	< 10	> 173 °C	CC(C)(Nc1ccc2[nH]c(NCc3ccc(Oc4ccccc4)cc3)nc2c1)C(N)=O [Compound 109]			
< 1	< 10	< 10		Cn1c(NCCOc2ccc(OC(F)(F)F)cc2)nc2cc(N)ccc21 [Compound 53]	> 70		
< 1	< 10		121.4 to 124.6 °C	Cn1c(NCc2ccc(Oc3ccc(F)cn3)cc2)nc2ccc(N)cc21 [Compound 301]			
< 1	< 10	< 10	58.4 to 66.6 °C	Nc1ccc2[nH]c(NCc3ccc(Oc4ccc(F)c(Cl)c4)cc3)nc2c1 [Compound 102]			
< 1	< 10	10 to 20	> 130.8 °C	CC(C)(C)c1ccc(CNc2nc3ccc(N)cc3[nH]2)cc1 [Compound 116]			

IC50 (human 5-LOX; read-out: 5-LO (IC50)) [µM]	EC50 ([1]; RBL) [µM]	EC50 (Rat whole blood (RWB)) [µM]	melting point	Compound	inhibition at 10 µM (HeLa S3 cells) [%]	IC50 (human 5-LOX; 5-LO (IC50, uM)) [µM]	EC50 [1] [µM]
< 1	< 10	< 10		Nc1ccc2[nH]c(N3CCC(Oc4ccc(OC(F)(F)F)cc4)C3)nc2c1 (stereo not drawn) [Compound 54]	> 70		
< 1	< 10	< 10	116.8 to 118.7 °C	CN(C)c1ccc2[nH]c(NCc3ccc(Oc4ccccc4)cc3)nc2c1 [Compound 98]			
< 1	< 10	10 to 20	> 107.8 °C	Nc1ccc2[nH]c(NCc3cccc4ccccc34)nc2c1 [Compound 91]	> 70		
< 1	< 10	> 20	> 200.9 °C	CC(Cc1ccc(Cl)cc1Cl)Nc1nc2cc(N)ccc2[nH]1 (stereo not drawn) [Compound 107]			
< 1	10 to 20		> 207.2 °C	CC(C)(C)c1ccc(Oc2ccc(CNc3nc4cc(N)ccc4[nH]3)cc2)cc1 [Compound 117]			
< 1	< 10	> 20	> 59.7 °C	CC(C)(C)Oc1ccc(CNc2nc3ccc(N)cc3[nH]2)cc1 [Compound 121]			
< 1	10 to 20	> 20	> 220 °C	Nc1ccc2[nH]c(NCc3ccc(N4CCN(c5ccc(OC(F)(F)F)cc5)CC4)cc3)nc2c1 [Compound 114]			
< 1	< 10	< 10		Cn1c(NCc2ccc(Oc3ccc(C(F)(F)F)nc3)cc2)nc2ccc(NC3COC3)cc21 [Compound 226]	> 70		
< 1	< 10		138.9 to 140.8 °C	Cn1c(NCc2ccc(Oc3nc4ccc(Cl)cc4n3C)cc2)nc2ccc(NC3COC3)cc21 [Compound 423]			
< 1	< 10	< 10	156.4 to 158.5 °C	Nc1ccc2nc(N)n(Cc3ccc(Oc4ccc(Cl)cc4)cc3)c2c1 [Compound 111]			
< 1	< 10	> 20	> 133 °C	CN(C)c1nc2ccc(N)cc2n1CCOc1ccc(OC(F)(F)F)cc1 [Compound 44]	40 to 70		
1 to 10	> 20		> 142.9 °C (dec.)	O=C(Nc1nc2cc(NCc3cnc[nH]3)ccc2[nH]1)c1ccc(F)cc1 [Compound 27]			
< 1	< 10	> 20		FC(F)(F)Oc1ccc(OC2CCN(c3ccc4nc(N5CCCC5)[nH]c4c3)C2)cc1 (stereo not drawn) [Compound 99]	> 70		
< 1	< 10	< 10	200.7 to 201.3 °C	Nc1ccc2nc(NC3CCCC3)n(CCOc3ccc(OC(F)(F)F)cc3)c2c1 [Compound 120]			
< 1	< 10	< 10		CCn1c(NCc2ccc(Oc3ncc(C(F)(F)F)cn3)cc2)nc2ccc(Nc3ccn(C)n3)cc21 [Compound 525]			
< 1	< 10	< 10	> 160.8 °C	Nc1ccc2[nH]c(NCc3ccc(Oc4cccc(Cl)c4)cc3)nc2c1 [Compound 122]			
< 1	10 to 20	> 20		Nc1nc2cc(NCCOc3ccc(OC(F)(F)F)cc3)ccc2[nH]1 [Compound 75]			
< 1	< 10	< 10		CCn1c(NCc2ccc(Oc3cnc(Cl)cn3)cc2)nc2ccc(Nc3cc(C(C)(C)C)[nH]n3)cc21 [Compound 514]			

Compound	IC50 (human 5-LOX; read-out: 5-LO (IC50)) [µM]	EC50 ([1]; RBL) [µM]	EC50 (Rat whole blood (RWB)) [µM]	melting point	inhibition at 10 µM (HeLa S3 cells) [%]	IC50 (human 5-LOX; 5-LO (IC50, uM)) [µM]	EC50 [1] [µM]
Nc1ccc2nc(NCc3ccc(Cl)cn3)[nH]c2c1 [Compound 158]				101.8 to 104 °C		< 1	> 20
